Peptide text beside a SMILES is read from it.
Key:
mouse hybridoma (CC9C10) = conditions: CC9C10 culture; Gly-Gln 20 mM, Ala-Gln 6 mM; cited from earlier work
[1] = system: AAV8 production in HEK Expi293F cells; experiment: Genomic AAV8 titer from supernatant by qPCR; type: cell-based; conditions: 8 mM supplement; for genomic AAV8 titer: supernatant
Procedure: (§1) A lab study to evaluate the influence of glutamine-dipeptides on viral vector production (AAV8) was conducted. HEK293 cells (HEK Expi293F cells, Thermo Fisher Scientific) were pre-cultured in shake flasks in a commercial culture medium recommended for viral vector production (Freestyle F17 Expression medium, Gibco, Thermo Fisher Scientific). After thawing the cells in 20 ml of the respective media variant (final concentration of glutamine or glutamine dipeptide in media variants was 8 mM) in 125 mL shake flasks, they were cultivated for five passages at 37° C. (185 rpm/50 mm orbit, 5% CO2) following a passaging rhythm of 3-4 days. For production, cells were split into three replicates each with a seeding viable cell density of 2×10^6 cells/mL (day 0) in 22 mL of the respective media variant. They were transfected with polyethylenimine (PEI MAX, Polysciences) with a 2-plasmid system for AAV8 (Plasmid Factory) featuring green fluorescent protein (GFP) as gene of interest 24 hours after inoculation (day 1). Again, media variants were supplemented by glutamine (Gln), alanyl-glutamine (Ala-Gln, via the liquid supplement, GlutaMAX™, Gibco, Thermo Fisher Scientific) or glycyl-glutamine hydrate (Gly-Gln, cQrex® GQ, Evonik Operations) to a final concentration glutamine or glutamine dipeptide of 8 mM (each n=3).
(§2) To analyze cell culture performance in the different media supplementations viable cell density and viability were determined via automated cell counter. Ammonium (fluorometric approach) as well as glucose and lactate concentration (enzymatic-amperometric method) were determined during preculture and AAV8 production phase on samples from one shake flask per supplement. Transfection efficiency was determined via GFP expression by flow cytometry 48, 72 and 96 h post-transfection. For AAV8 titer determination, samples of all replicates (supernatants only) were taken 96 and 120 h post-transfection and analyzed via qPCR (genomic titer) and ELISA (capsid titer).

[2] = system: AAV8 production in HEK Expi293F cells; experiment: AAV8 capsid titer from supernatant by ELISA; type: cell-based; conditions: 96 h and 120 h post transfection
Procedure: A lab study to evaluate the influence of glutamine-dipeptides on viral vector production (AAV8) was conducted. HEK293 cells (HEK Expi293F cells, Thermo Fisher Scientific) were pre-cultured in shake flasks in a commercial culture medium recommended for viral vector production (Freestyle F17 Expression medium, Gibco, Thermo Fisher Scientific). After thawing the cells in 20 ml of the respective media variant (final concentration of glutamine or glutamine dipeptide in media variants was 8 mM) in 125 mL shake flasks, they were cultivated for five passages at 37° C. (185 rpm/50 mm orbit, 5% CO2) following a passaging rhythm of 3-4 days. […]
as §2

HEK Expi293F cells = experiment: Transfection efficiency via GFP expression by flow cytometry; type: cell-based; conditions: for transfection efficiency: 96 h post transfection, 8 mM supplement
Procedure: as §1, §2

[3] = compared with glutamine; cited from earlier work
[4] = at 20° C. in water; cited from earlier work
[5] = system: AAV8 production in HEK Expi293F cells; experiment: Full/empty ratio (genomic titer vs. capsid titer); type: cell-based; conditions: from mean values
Procedure: In a preferred embodiment, the “full/empty ratio” shall be defined as viral genome titer (vg) divided by viral particle titer (vp). A suitable method to determine vg is quantitative polymerase chain reaction (qPCR). A suitable method to measure vp titer including intact virions and empty capsids is serotype-specific enzyme-linked immunosorbent assay (ELISA).
as §2
The full/empty ratio (ratio genomic titer in vg/mL vs. capsid titer in vp/mL) was calculated using the mean values for both sampling points (FIG. 11). The full/empty ratio varied between 14-22% for the 96 h post transfection time point and between 13-21% for the 120 h post transfection time point. […]

| SMILES | cell yields (mouse hybridoma (CC9C10)) | monoclonal antibody production (mouse hybridoma (CC9C10)) | genomic titer, comparison between supplements [1] | capsid titer compared to cultures supplemented with Gln [2] | transfection efficiency (HEK Expi293F cells) | stability during autoclaving and storage [3] | genomic AAV8 titer ([1]; 96 h post transfection) | genomic AAV8 titer ([1]; 120 h post transfection) | solubility [4] | full/empty ratio ([5]; 96 h post transfection) | full/empty ratio ([5]; 120 h post transfection) | transfection efficiency, comparison between supplements (HEK Expi293F cells; Gln vs Ala-Gln vs Gly-Gln, 8 mM) | relative fluorescence, comparison between supplements (HEK Expi293F cells; all sampling points (48, 72, 96 h)) |
| --- | --- | --- | --- | --- | --- | --- | --- | --- | --- | --- | --- | --- | --- |
| C[C@H](N)C(=O)N[C@@H](CCC(N)=O)C(=O)O [Ala-Gln, alanyl-glutamine, reference compound] (H-Ala-Gln-OH) | high cell yields | comparable | comparable to the other processes | higher capsid titers | 98% | comparably stable | – | – | – | – | – | – | – |
| NC(=O)CC[C@H](N)C(=O)O [Gln, L-glutamine] | – | comparable | – | – | 98% | – | – | – | – | – | – | – | – |
| NCC(=O)N[C@@H](CCC(N)=O)C(=O)O.O [Gly-Gln, Glycyl-L-Glutamine hydrate] (H-Gly-Gln-OH) | high cell yields | comparable | – | higher capsid titers | 98% | comparably stable | 7.3×10^10 vg/mL | 8.2×10^10 vg/mL | 154 mg/mL | 22% | 21% | highest transfection efficiency | highest relative fluorescence |

From patent US20250179519A1, “PROCESS TO ENHANCE VIRAL VECTOR PRODUCTION IN CELL-CULTURE USING GLYCYL-GLUTAMINE” (Evonik Operations GmbH, priority 2022, published 2025)
